{"source": "patent US11331275B2", "about": "(Humanwell PuraCap Pharmaceuticals (Wuhan) Co., Ltd, priority 2017, dated 2022)", "origin": "cited, not measured here"}
{"smiles": "C=C(c1ccc(C(=O)O)cc1)c1cc2c(cc1C)C(C)(C)CCC2(C)C", "note": "[bexarotene, 4-[1-(5,6,7,8-tetrahydro-3,5,5,8,8-pentamethyl-2-naphthyl)ethenyl] benzoic acid]", "values": [{"measurement": "solubility in acetonitrile", "setting": "acetonitrile", "value": "soluble"}, {"measurement": "solubility in dimethylsulfoxide", "setting": "dimethylsulfoxide", "value": "soluble"}, {"measurement": "solubility in methanol", "setting": "methanol", "value": "slightly soluble"}, {"measurement": "solubility in water", "setting": "water", "value": "almost insoluble"}]}
